Source: ChEMBL document CHEMBL1142670, “Synthesis, nicotinic acetylcholine receptor binding, and antinociceptive properties of 3'-substituted deschloroepibatidine analogues. Novel nicotinic antagonists” (J Med Chem, 2005)

Assays:
Mus musculus [1] = experiment: Anesthetic dose in hotplate test in mouse; format: functional
[2] = molecular target: Neuronal acetylcholine receptor subunit alpha-7 (Rattus norvegicus, UniProt Q05941); experiment: Inhibition of [125I]-iodo-MLA binding to Nicotinic acetylcholine receptor alpha-7 in rat cerebral cortex; format: tissue-based
Sequence of Neuronal acetylcholine receptor subunit alpha-7 (Q05941 whole entry): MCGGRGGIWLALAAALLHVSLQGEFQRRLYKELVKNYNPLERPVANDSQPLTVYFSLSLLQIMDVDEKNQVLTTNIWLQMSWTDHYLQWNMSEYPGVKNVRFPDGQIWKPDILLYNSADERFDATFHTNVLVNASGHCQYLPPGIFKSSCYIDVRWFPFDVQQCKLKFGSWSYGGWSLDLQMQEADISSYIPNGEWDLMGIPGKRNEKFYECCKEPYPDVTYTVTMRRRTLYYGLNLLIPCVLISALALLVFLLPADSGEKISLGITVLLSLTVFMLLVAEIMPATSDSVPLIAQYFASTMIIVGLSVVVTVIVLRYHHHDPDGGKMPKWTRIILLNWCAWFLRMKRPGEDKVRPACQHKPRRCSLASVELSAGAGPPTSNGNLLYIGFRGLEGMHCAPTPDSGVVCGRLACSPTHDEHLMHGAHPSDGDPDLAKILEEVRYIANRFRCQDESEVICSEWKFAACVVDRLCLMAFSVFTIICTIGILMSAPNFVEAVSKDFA

Mus musculus [3] = experiment: Effect on body temperature of mouse was determined at 0.01 ug/kg; format: functional
Mus musculus [4] = species on record: Mus musculus; experiment: Effective dose to induce hypothermia in mouse was determined; format: functional
Mus musculus [5] = experiment: Anesthetic dose in mouse in tail-flick test; format: functional
Mus musculus [6] = species on record: Mus musculus; experiment: Effective dose to induce spontaneous activity in mouse was determined; format: functional
Mus musculus [7] = species on record: Mus musculus; experiment: Effective dose to induce antinociception in mouse determined in tail-flick test; format: functional
Mus musculus [8] = species on record: Mus musculus; experiment: Effective dose to induce antinociception in mouse determined in hotplate test; format: functional
Mus musculus [9] = experiment: Anesthetic effect in mouse in hotplate test at 20 ug/kg; format: functional
Mus musculus [10] = experiment: Effect on body temperature of mouse was determined at 0.02 ug/kg; format: functional
[11] = molecular target: Neuronal acetylcholine receptor; alpha4/beta2 (Rattus norvegicus, UniProt P09483+P12390); experiment: Inhibition of [3H]epibatidine binding to Nicotinic acetylcholine receptor alpha4-beta2 in rat cerebral cortex; format: tissue-based
Sequence of Neuronal acetylcholine receptor; alpha4/beta2 (P09483 whole entry): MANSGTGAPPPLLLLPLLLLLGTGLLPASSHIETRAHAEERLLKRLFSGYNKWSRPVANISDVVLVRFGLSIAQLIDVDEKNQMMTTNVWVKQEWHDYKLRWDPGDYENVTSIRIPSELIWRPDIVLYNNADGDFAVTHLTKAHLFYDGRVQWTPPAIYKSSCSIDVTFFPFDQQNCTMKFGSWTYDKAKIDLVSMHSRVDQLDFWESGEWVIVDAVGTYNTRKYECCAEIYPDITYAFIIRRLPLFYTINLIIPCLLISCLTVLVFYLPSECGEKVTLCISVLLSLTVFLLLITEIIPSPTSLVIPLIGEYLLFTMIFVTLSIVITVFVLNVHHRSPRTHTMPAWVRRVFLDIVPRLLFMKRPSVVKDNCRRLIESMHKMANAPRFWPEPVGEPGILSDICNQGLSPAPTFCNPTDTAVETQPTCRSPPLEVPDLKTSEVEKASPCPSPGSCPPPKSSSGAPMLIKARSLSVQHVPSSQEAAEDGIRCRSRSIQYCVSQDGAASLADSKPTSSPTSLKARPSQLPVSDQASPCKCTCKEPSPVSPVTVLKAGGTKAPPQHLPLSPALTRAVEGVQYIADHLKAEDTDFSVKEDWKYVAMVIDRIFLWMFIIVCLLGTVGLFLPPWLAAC
Sequence of Neuronal acetylcholine receptor; alpha4/beta2 (P12390 whole entry): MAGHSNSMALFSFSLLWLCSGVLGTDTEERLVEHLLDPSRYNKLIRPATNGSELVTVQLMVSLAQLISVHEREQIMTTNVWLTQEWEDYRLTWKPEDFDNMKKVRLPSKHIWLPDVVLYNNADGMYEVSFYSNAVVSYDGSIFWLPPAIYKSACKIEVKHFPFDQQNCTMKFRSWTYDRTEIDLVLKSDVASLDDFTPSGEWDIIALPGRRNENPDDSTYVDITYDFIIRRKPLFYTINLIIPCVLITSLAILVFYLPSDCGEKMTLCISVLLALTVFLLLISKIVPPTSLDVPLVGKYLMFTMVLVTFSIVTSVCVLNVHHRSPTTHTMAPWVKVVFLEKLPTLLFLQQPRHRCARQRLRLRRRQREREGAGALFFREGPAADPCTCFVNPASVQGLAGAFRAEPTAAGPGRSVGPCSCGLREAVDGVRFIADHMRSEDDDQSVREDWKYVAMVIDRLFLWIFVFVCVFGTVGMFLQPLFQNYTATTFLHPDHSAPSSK

Mus musculus [12] = experiment: Anesthetic effect in hotplate test in mouse at 10 ug/kg; format: functional
Mus musculus [13] = experiment: Effect on body temperature of mouse was determined at 10 ug/kg; format: functional
Mus musculus [14] = experiment: Anesthetic effect in hotplate test in mouse at 0.1 ug/kg; format: functional
[15] = Effect on body temperature of mouse was measured in tail-flick test at the rate 500 ug/kg; format: functional
Mus musculus [16] = experiment: Anesthetic effect in mouse in hotplate test at 10 ug/kg; format: functional
[17] = Mus musculus, Tail, read-out: ED50

Compound | AD50 (Mus musculus [1]) [µg/kg] | Ki [2] [nM] | Effect (Mus musculus [3]) [%] | ED50 (Mus musculus [4]; Mus musculus, read-out: ED50) [mg/kg] | AD50 (Mus musculus [5]) [µg/kg] | ED50 (Mus musculus [6]) [mg/kg] | ED50 (Mus musculus [7]; [17]) [mg/kg] | ED50 (Mus musculus [8]) [mg/kg] | Anesthetic effect (Mus musculus [9]) [%] | ED50 (Mus musculus [6]; Mus musculus, read-out: ED50) [mg/kg] | ED50 (Mus musculus [8]; Mus musculus, read-out: ED50) [mg/kg] | Effect (Mus musculus [10]) [%] | Ki [11] [nM] | Anesthetic effect (Mus musculus [12]) [%] | Effect (Mus musculus [13]) [%] | Anesthetic effect (Mus musculus [14]) [%] | ED50 (Mus musculus [7]) [mg/kg] | Increase [15] [%] | ED50 (Mus musculus [4]) [mg/kg] | Anesthetic effect (Mus musculus [16]) [%]
Ic1cncc(C2CC3CCC2N3)c1 (stereo in doubt; 3d) | 0.24 | 150 | 0 | 0.78 | 0.1 | 0.13 | 0.8 | 0.9 | – | – | – | – | – | – | – | – | – | – | – | –
Fc1cncc(C2CC3CCC2N3)c1 (centres undefined) | – | > 1000 | – | 0.15 | 0.07 | – | 0.08 | – | 35 | 0.023 | 0.05 | 0 | – | – | – | – | – | – | – | –
Nc1cncc(C2CC3CCC2N3)c1 (centres undefined) | 6.9 | 732 | 0 | 2.7 | 1.6 | – | 4.7 | – | – | 0.9 | 3.1 | – | 0.097 | – | – | – | – | – | – | –
Clc1cncc(C2CC3CCC2N3)c1 (centres undefined) | 15 | 50.6 | – | 0.15 | 0.2 | – | 0.3 | – | – | 0.04 | 0.23 | 0 | 0.055 | – | – | – | – | – | – | –
CN1C2CCC1C(c1cncc(I)c1)C2 (centres undefined) | – | 33.2 | – | 0.34 | 0.04 | – | 0.6 | – | – | 0.03 | 0.37 | – | 0.029 | 0 | 0 | – | – | – | – | –
CN1CCC[C@H]1c1cccnc1 [NICOTINE] | – | – | – | 1 | – | – | 1.3 | – | – | 0.5 | 0.65 | – | – | – | – | – | – | – | – | –
Clc1ccc(C2CC3CCC2N3)cn1 (centres undefined) [EPIBATIDINE] | – | – | – | 0.004 | – | – | 0.006 | – | – | 0.001 | 0.004 | – | – | – | – | – | – | – | – | –
C=Cc1cncc(C2CC3CCC2N3)c1 (centres undefined) | 100 | 344 | 0 | 0.45 | 2.4 | – | 1 | – | – | 0.2 | 0.8 | – | 0.26 | – | – | – | – | – | – | –
C#Cc1cncc(C2CC3CCC2N3)c1 (centres undefined) | – | 5 | 0 | 0.05 | 6 | – | 1 | – | – | 0.001 | 0.56 | – | 0.02 | – | – | 0 | – | – | – | –
Brc1cncc(C2CC3CCC2N3)c1 (centres undefined) | 0.78 | 164 | 0 | 0.07 | 15 | – | 1.2 | – | – | 0.1 | 0.57 | – | 0.05 | – | – | – | – | – | – | –
Ic1cncc(C2CC3CCC2N3)c1 (single isomer, unassigned; (+)) | – | 179 | – | – | 1.2 | 0.091 | – | 0.06 | 15 | – | – | – | 0.045 | – | – | – | 0.78 | 6 | – | –
Ic1cncc(C2CC3CCC2N3)c1 (single isomer, unassigned; (-)) | – | 156 | – | – | 0.11 | 0.351 | – | 0.21 | – | – | – | – | 0.048 | – | – | – | 0.94 | – | 0.48 | 15
